# Data reported in patent US20250375453A1, “HIGH-EFFICIENCY ANTIMICROBIAL COMPOSITION” (CM4CURE S.A., priority 2023, published 2025).
# What was measured:
# [1] = test system: Vancomycin-resistant Enterococcus faecalis (VRE, ATCC BAA-2573); assay: Synergy checkerboard assay / broth micro-dilution MIC (ISO 20776-1 with modifications); assay type: cell-based
# Method: • 1. Preparation of the inoculum of Vancomycin-resistant Enterococcus faecalis (VRE, ATCC BAA-2573). Inoculum is prepared by suspension of 1 colony of bacteria (medium size colony from Tryptic Soy agar plate) in 3 ml of Tryptic Soy broth (TSB) using a 200 μL tip. The solution is mixed by vortexing and incubated at 37° C. overnight (19-24 hours) under shaking at 200 rpm. • 2. Preparation of the Antimicrobial dilution on the day of the experiment. Stock solutions are performed with distilled water for all antimicrobial compound except for Fluometacyl (ethanol). Dilution for each condition is made in Mueller-Hinton broth (NMB). 50p of APIs dilution is added to wells of a 96 wells microplate (each condition in duplicate-triplicate). • Antimicrobial compounds were prepared as follows: • Fluometacyl (F) (4 mg/mL in 100% EtOH) served as a master stock. To obtain the final concentration of 40 μg/ml in the bacterial suspension, initial stock of 160 μg/ml in Mueller-Hinton broth (MHB) was prepared and further 2-fold diluted using the following serial dilution scheme: • (1): 40 μg/ml (160 μg/ml, prepared in MHB) • (2): 20 μg/ml (80 μg/ml, dilution in MHB) • (3): 10 μg/ml (40 μg/ml, dilution in MHB) • (4): 5 μg/ml (20 μg/ml, dilution in MHB) • (5): 2.5 μg/ml (10 μg/ml, dilution in MHB) • (6): 1.25 μg/ml (5 μg/ml, dilution in MHB) • Chlorhexidine acetate (CHLX) (2 mg/mL in H2O) served as a master stock. To obtain the final concentration of 4 μg/ml in the bacterial suspension, initial stock of 16 μg/ml in MHB was prepared and further 2-fold diluted using the following serial dilution scheme: • (1): 8 μg/ml (32 μg/ml, prepared in MHB) • (2): 4 μg/ml (16 μg/ml, prepared in MHB) • (3): 2 μg/ml (8 μg/ml, dilution in MHB) • (4): 1 μg/ml (4 μg/ml, dilution in MHB) • (5): 0.5 μg/ml (2 μg/ml, dilution in MHB) • (6): 0.25 μg/ml (1 μg/ml, dilution in MHB) • 3. Preparation of VRE. Before the experiment, the VRE bacterial suspension (incubated overnight) is diluted 100× in TSB in 4 mL of TSB and grown at 37 C under agitation 200 rpm until OD600 reaches 0.08 to 0.16. This corresponds to the cell density […]. 100 μl of the bacterial solution (OD600 ranging from 0.08 to 0.16) is added to 9 900 μL of Mueller-Hinton Broth (MHB) (dilution 1:100). • 4. Preparation of a 96-well plate. 100 μL of bacteria (diluted 1:100 in MHB from the point 3) is added in each well of the plate containing 100 μL of the serially diluted APIs alone or in combinations as shown in the p. 2. Bacteria should be added into the 96-well plate within the 30 minutes following the preparation of the bacteria in order to maintain the same number of CFU/mL. Plates are incubated at 37° C. overnight. A condition with MHB medium alone or bacteria without APIs will also be added as the control conditions. Since fluometacyl is dissolved in ethanol, extra conditions are added: MHB with ethanol in order to assess the effect of ethanol on bacterial growth. • Following scheme is applied: • 2 antibacterial compounds: 50 μL of a antimicrobial 1+50 μL of a antimicrobial 2+100 μL of bacterial suspension in MHB • 1 antibacterial compound: 50 μL of a drug 1/2+50 μL of MHB+100 μL of bacterial suspension in MHB • Growth control: 100 μL MHB (+/−Ethanol)+100 μL of bacterial suspension • BLANK: MHB only • 5. CFU counting of the initial challenge inoculum. 10 μL of the solution of the bacteria used as the positive control is diluted in 10 mL of TSB. 100 μL is spread on Tryptic Soy agar (done in triplicate) and incubated at 37° C. overnight • 6. Results. The MIC is the lowest concentration that inhibits completely the visible growth of the bacteria (no turbidity in a well). The OD at 600 nm is also recorded for each well as back-up data.
# Synergy evaluation resulting from the comparison between activity of the combination of the antimicrobial compounds and their individual activities was represented as the Fractional Inhibitory Concentration (FIC) index value. […]
# [2] = test system: Staphylococcus aureus (MRSA); assay: MIC in monotherapy and in combination therapy (ISO standard 20776-1); assay type: cell-based
# Source text: (§1) Summary of MIC Values for Fluometacyl (FLC)+Chlorhexidine (CHX) Tested Against MRSA, Enterococcus faecalis (VRE), Pseudomonas aeruginosa (PA) and Candida albicans (CA).
# (§2) By Minimum Inhibitory Concentration (MIC) one means the lowest concentration of antimicrobial that prevents visible growth of a microorganism (determined according to ISO standard 20776-1).
# (§3) This finds an implication in combining many known antimicrobials together rather than discovering new chemical entities.
# [3] = test system: Pseudomonas aeruginosa (PA); assay: as above; assay type: cell-based
# Source text: as §1, §2, §3
# Candida albicans (CA) = assay: as above; assay type: cell-based
# Source text: as §1, §2, §3
# [4] = cited from earlier work
# [5] = test system: Pseudomonas aeruginosa (ATCC 15442); assay: Real-time microcalorimetric measurement of bacterial metabolic activity (heat flow, Calscreener); assay type: cell-based
# Method: Pseudomonas aeruginosa (ATCC 15442) was grown overnight in TSB (tryptic soy broth) medium, before being diluted 1×10^7 fold in fresh TSB. Subsequently […] aliquots of diluted bacteria suspensions were respectively supplemented with 1, 2, 4, 6, 12 and 24 mg/L of chlorhexidine (digluconate solution, 20% in H2O, Merck). The aqueous solution of chlorhexidine was kept refrigerated according to the manufacturer's technical sheet. Chlorhexidine or mQH2O as a vehicle were added to the bacterial suspensions to obtain the given concentrations followed by a brief vortexing. Bacterial aliquots were then distributed in the dedicated non-activated inserts of a 48-well plate and grown for 24h or more under static conditions at 37 C using Calscreener technology to measure bacterial growth and metabolic activity in Real-Time as described in https://cordis.europa.eu/project/id/784514.
# For the study of the combination of chlorhexidine and triafluocyl aforementioned diluted bacterial suspensions were supplemented with either chlorhexidine alone (1, 2, 4, 6, 12 mg/L) or mixed with triafluocyl (20 mg/L, Polpharma). Triafluocyl was stored in absolute ethanol in the refrigerator at a concentration of 3 mg/mL. Triafluocyl, chlorhexidine or both, and ethanol as a vehicle were added to the bacterial suspensions to obtain the given concentrations.
# Pseudomonas aeruginosa (ATCC 15442) was grown overnight in TSB (tryptic soy broth) medium, before being diluted 1×10^7 fold in fresh TSB. Subsequently […] aliquots of diluted bacteria suspensions were respectively supplemented with […] of alexidine dihydrochloride (stock solution of 3 mg/mL in ethanol, Merck). […] The stock solutions of alexidine and fluometacyl were kept frozen according to the manufacturer's technical sheet. Alexidine alone or with fluometacyl, and ethanol as a vehicle were added to the bacterial suspensions to obtain the given concentrations followed by a brief vortexing. […]
# [6] = test system: Staphylococcus aureus (MRSA, ATCC 6538); assay: as above; assay type: cell-based
# Method: Staphylococcus aureus (MRSA, ATCC 6538) was grown overnight in TSB (tryptic soy broth) medium, before being diluted 1×10^6 fold in fresh TSB. Subsequently […] aliquots of diluted bacteria suspensions were respectively supplemented with 1 and 2 mg/L of chlorhexidine (digluconate solution, 20% in H2O, Merck). […] The aqueous solution of chlorhexidine and the ethanol-based solution of triafluocyl were kept refrigerated. Chlorhexidine, triafluocyl or both, and ethanol as a vehicle were added to the bacterial suspensions to obtain the given concentrations followed by a brief vortexing. Bacterial aliquots were then distributed in the dedicated non-activated inserts of a 48-well plate and grown for 24 h or more under static conditions at 37 C using Calscreener technology to measure bacterial growth and metabolic activity in Real-Time as described in https://cordis.europa.eu/project/id/784514.
# Staphylococcus aureus (MRSA, ATCC 6538) was grown overnight in TSB (tryptic soy broth) medium, before being diluted 1×10^6 fold in fresh TSB. Subsequently […] aliquots of diluted bacteria suspensions were respectively supplemented with 0.25, 0.5 and 1 μg/mL of chlorhexidine (digluconate solution, 20% in H2O, Merck) or alexidine dihydrochloride (stock solution of 3 mg/mL in ethanol, Merck).
# The aqueous solution of chlorhexidine and the ethanol-based solution of alexidine were kept refrigerated. Chlorhexidine, alexidine, and ethanol as a vehicle were added to the bacterial suspensions to obtain the given concentrations followed by a brief vortexing. Bacterial aliquots were then distributed in the dedicated non-activated inserts of a 48-well plate and grown for 24 h or more under static conditions at 37 C using Calscreener technology to measure bacterial growth and metabolic activity in Real-Time as described in https://cordis.europa.eu/project/id/784514.
# Staphylococcus aureus (MRSA, ATCC 6538) was grown overnight in TSB (tryptic soy broth) medium, before being diluted 1×10^6 fold in fresh TSB. Subsequently […] aliquots of diluted bacteria suspensions were respectively supplemented with […] of alexidine dihydrochloride (stock solution of 3 mg/mL in ethanol, Merck). […] The ethanol-based solutions of alexidine and fluometacyl were stored at −20° C.
# Alexidine alone or with fluometacyl, and ethanol as a vehicle were added to the bacterial suspensions to obtain the given concentrations followed by a brief vortexing. Bacterial aliquots were then distributed in the dedicated non-activated inserts of a 48-well plate and grown for 24 h or more under static conditions at 37 C using Calscreener technology to measure bacterial growth and metabolic activity in Real-Time.
# [7] = MIC combination / MIC monotherapy
"MIC ([1]; Enterococcus faecalis, antimicrobial alone, read-out: MIC Monotherapy (X)) [mg/mL]",MIC combination dual therapy (Y) ([1]; in FLC + CHX combination) [mg/mL],"MIC ([2]; Staphylococcus aureus, MRSA, antimicrobial alone, read-out: MIC Monotherapy (X)) [mg/mL]",MIC combination dual therapy (Y) ([2]; in FLC + CHX combination) [mg/mL],MIC Monotherapy (X) ([3]; antimicrobial alone),MIC combination dual therapy (Y) ([3]; in FLC + CHX combination) [mg/mL],MIC Monotherapy (X) (Candida albicans (CA); antimicrobial alone),MIC combination dual therapy (Y) (Candida albicans (CA); in FLC + CHX combination) [mg/mL],Compound,"Ratio Y/X [1, 7]","Ratio Y/X [2, 7]",solubility in an aqueous environment or aqueous medium [4],effect on growth (heat flow) ([5]; triafluocyl 20 mg/L alone),effect on growth (heat flow) ([6]; triafluocyl 1 mg/L alone),effect on growth (heat flow) ([5]; alexidine 4 mg/mL alone),effect on growth (heat flow) ([6]; alexidine 1 mg/mL alone),"effect on metabolic activity (heat flow), compared with chlorhexidine ([6]; alexidine 0.25 and 0.5 mg/mL alone)"
20,2.5 to 10,20,5 to 10,Not detected,20,Not detected,20,"CCCSc1nc(N[C@@H]2C[C@H]2c2ccc(F)c(F)c2)c2nnn([C@@H]3C[C@H](O)[C@@H](O)[C@H]3O)c2n1 [Fluometacyl, (1S,2R,3S,4R)-4-[7-[[(1R,2S)-2-(3,4-Difluorophenyl)cyclopropyl]amino]-5-(propylthio)-3H-1,2,3-triazolo[4,5-d]pyrimidin-3-yl]-1,2,3-cyclopentanetriol]",0.125-0.5,0.25-0.5,generally not soluble,–,–,–,–,–
–,–,–,–,–,–,–,–,"CCCSc1nc(N[C@@H]2C[C@H]2c2ccc(F)c(F)c2)c2nnn([C@@H]3C[C@H](OCCO)[C@@H](O)[C@H]3O)c2n1 [Triafluocyl, (1S,2S,3R,5S)-3-[7-[(1R,2S)-2-(3,4-difluorophenyl)cyclopropylamino]-5-(propylthio)-3H-[1,2,3]-triazolo[4,5-d]pyrimidin-3-yl]-5-(2-hydroxyethoxy)-1,2-cyclopentanediol]",–,–,generally not soluble,does not inhibit the growth,doesn't affect the growth,–,–,–
–,–,–,–,–,–,–,–,alexidine,–,–,–,–,–,strong growth inhibition,full growth inhibition,noticeably stronger effect
